Assay results reported in patent US8784856B2, “Meadowfoam-based bioherbicide products” (The State of Oregon Acting by and Through the State Boad of …, priority 2007, dated 2014).
Entries after “also recorded” stand apart in the source; their conditions may differ.

Tests used:
[1] = system: postharvest fruit pathogens; conditions: cited from earlier work
fungi = conditions: cited from earlier work
[2] = system: downy brome (Bromus tectorum) seeds; experiment: Assay for herbicidal activity: downy brome seed germination in soil; type: in vivo; conditions: for inhibition of downy brome germination at the highest concentration tested: 0.89 mg g^−1, FIG. 11; for effectiveness in inhibiting downy brome germination, in words: FIG. 11, comparison of compounds 1-4; for activity as seed germination inhibitors (downy brome): compared with MBITC, 82 hours and 168 hours, FIG. 8
Protocol: Assay for herbicidal activity. About 45 g of clean soil was weighed into 10-cm diameter Petri dishes. For germination testing of individual compounds (1-4), 15.0 mL of test solution was added to each dish. Glucolimanthin 1 (GLN) was dissolved in water and compounds 2-4 in ethanol. The ethanolic solutions were applied to the dishes, allowed to evaporate overnight in a hood, and then 15 mL of water was added to the dishes. Meal products were mixed with soil, followed by the addition of 15 mL of water. Fifteen seeds of Bromus tectorum were placed in concentric circles within each dish. Petri dishes with lids were placed in an incubator at 20° C. during day time (8 hrs) and at 15° C. at night time (16 hrs) for 7 days. Germination was recorded as root emergence.

[3] = Degradation of GLN in aqueous FeSO4 solution (HPLC); type: physicochemical; conditions: 1 mM GLN with 10 mM FeSO4 at room temperature; FIG. 3B
Source text: HPLC. The HPLC equipment consisted of a Waters Delta 600 solvent delivery system, a Waters 717 plus Autosampler, a Waters 2996 photodiode array detector, a Waters 600 controller and a data acquisition/processing computer with Empower™ software (Waters, Milford, Mass.). In HPLC system 1, separations were achieved on a reverse-phase Lichrosphere 5 μm C18 column (4×250 mm, Phenomenex, Torrance, Calif.). The HPLC solvents were 0.1% aqueous trifluoroacetic acid (solvent A) and MeCN (solvent B). A linear solvent gradient was employed starting from 5% solvent B in solvent A to 100% B over 30 min at a flow rate of 1.0 mL/min. After returning to the starting conditions in 1 min, the column was equilibrated for 10 min before the next injection. The injection volume was 20 μL. On-line UV spectra were recorded in the range 220-500 nm and the λ274 nm trace was used for calculation of peak areas. Analyte concentrations were determined from calibration curves constructed for each analyte.

Wheat [4] = conditions: in vivo; cited from earlier work
[5] = system: velvetleaf, sicklepod, milo, and pitted morning glory; conditions: formulated as granules; all weed types; cited from earlier work
[6] = system: potato cyst Nematode (Globodera rostochiensis Ct. Woll); conditions: in vivo; cited from earlier work
[7] = system: velvetleaf (Abutilon theophrasti); conditions: in vivo; cited from earlier work
Wheat [8] = conditions: in vivo; cited from earlier work; remark: listed apart in the source
[9] = system: benzo[a]pyrene-induced stomach tumors; conditions: mice dosed with test compound; cited from earlier work
Helicobacter pylori = conditions: cited from earlier work
[10] = system: human retinal pigment epithelial cells, keratinocytes, and mouse leukemia cells; conditions: cited from earlier work
[11] = system: skin damage by UV radiation; conditions: human subjects, topically applied; cited from earlier work
phase 2 enzymes = conditions: after treatment; cited from earlier work
[12] = system: phase II enzymes (e.g., NAD(P)H:quinone reductase); conditions: cited from earlier work
Aphamyces euteiches = conditions: cited from earlier work
[13] = system: fall armyworm (Lepidoptera: Noctuidae); conditions: compared with benzyl ITC and synthetic analogs; cited from earlier work
[14] = system: root lesion nematode (Pratylenchus neglectus); conditions: in vivo; cited from earlier work

SMILES: Oc1ccc(CN=C=S)cc1 [4-hyxdroxybenzl]
- activity against spore germination [1]: equal

SMILES: CS/C=C/CCN=C=S [trans-4-methylthio-3-butenyl ITC]
- activity against spore germination [1]: equal
- activity against fungi (fungi): good activity

SMILES: COc1cccc(C/C(=N/OS(=O)(=O)O)S[C@@H]2O[C@H](CO)[C@@H](O)[C@H](O)[C@H]2O)c1 [GLN, glucolimnanthin]
- inhibition of downy brome germination at the highest concentration tested [2]: only slightly inhibited
- effectiveness in inhibiting downy brome germination, in words [2]: least effective
- effect of GLN on downy brome seed germination ([2]; levels corresponding to those found in MSM (0.4 mg GLN per g soil), 7 days, FIG. 7): no germination inhibitory activity; also recorded: no effect; also recorded: No difference
- degradation of GLN [3]: did not result in significant degradation

SMILES: S=C=NCc1ccccc1 [benzyl ITC]
- order of effectiveness against wheat (Wheat [4]): 2-phenylethyl ITC>allyl ITC>benzyl ITC
- inhibition of weed germination [5]: inhibition of germination
- activity against spore germination [1]: lower activity
- activity against fungi (fungi): good activity
- activity on potato cyst nematode [6]: performed well

SMILES: COc1cccc(CC#N)c1 [MPAN, 3-Methoxyphenylacetonitrile]
- inhibition of downy brome germination at the highest concentration tested [2]: completely inhibiting
- effectiveness in inhibiting downy brome germination, in words [2]: most effective
- activity as seed germination inhibitors (downy brome) [2]: more active
- seed germination inhibitory / allelopathic activity against velvetleaf [7]: seed germination inhibitory effects
- seed germination inhibitory / allelopathic activity against wheat (Wheat [8]): seed germination inhibitory effects

SMILES: C=CCCN=C=S [3-butenyl ITC]
- activity against spore germination [1]: lower activity

SMILES: C[S+]([O-])CCCCN=C=S (stereo not shown) [sulforaphane, 4-methylsulfinylbuthyl ITC]
- effect on benzo[a]pyrene-induced stomach tumors [9]: blocked
- antibacterial properties against Helicobacter pylori (Helicobacter pylori): bacteriostatic and bactericidal properties
- glutathione after treatment [10]: increase
- protection of cells against oxidative damage [10]: powerful and prolonged protection
- erythema and inflammation induced by UV radiation [11]: reduced
- phase 2 enzymes in mouse and human skin (phase 2 enzymes): Up-regulation
- induction of phase II enzymes [12]: high activity

SMILES: CN=C=S [methyl ITC]
- performance against pathogen causing pea root rot (Aphamyces euteiches): performed well

SMILES: COc1cccc(CN=C=S)c1 [MBITC, 3-Methoxybenzyl isothiocyanate]
- inhibition of downy brome germination at the highest concentration tested [2]: failed to completely inhibit
- effectiveness in inhibiting downy brome germination, in words [2]: not as effective
- activity as seed germination inhibitors (downy brome) [2]: moderately active
- seed germination inhibitory / allelopathic activity against velvetleaf [7]: greater activity
- seed germination inhibitory / allelopathic activity against wheat (Wheat [8]): greater activity
- effectiveness against armyworm [13]: more effective

SMILES: S=C=NCCc1ccccc1 [2-phenylethyl ITC]
- order of effectiveness against wheat (Wheat [4]): 2-phenylethyl ITC>allyl ITC>benzyl ITC
- activity against fungi (fungi): good activity
- activity on potato cyst nematode [6]: performed well
- effect on root lesion nematode [14]: suppression

SMILES: C=CCN=C=S [allyl ITC]
- order of effectiveness against wheat (Wheat [4]): 2-phenylethyl ITC>allyl ITC>benzyl ITC
- activity against spore germination [1]: equal
- performance against pathogen causing pea root rot (Aphamyces euteiches): performed well
- activity on potato cyst nematode [6]: performed well
